# Results as given in US8624037B2, “Imidazolidine-2,4-dione derivatives and use thereof as a medicament” (Ipsen Pharma S.A.S., priority 2009, dated 2014).
# pIC50: −log10 of the molar value.
# Key:
# LNCaP cells [1] = experiment: Pro- and/or anti-proliferative activity on LNCaP in medium depleted in steroids (WST-1); assay type: cell-based; details: FIG. 1
# Method: 2. Antiproliferative Activity on LNCaP in a Medium Depleted in Steroids:
# The pro- and/or anti-proliferative activity of the compounds of the present invention is determined on LNCaP in medium depleted in steroids.
# The LNCaP (ATCC, 1740) line originates from a carcinoma of the prostate expressing the androgen receptor, it is hormone-dependent.
# The maintenance of the LNCaP line is carried out under the usual conditions in RPMI, 10% of foetal calf serum, 2 mM of glutamine, 100 U/ml of penicillin, 0.1 mg/ml of streptomycin and 0.01M HEPES, 1 mM sodium pyruvate, 40% of D-glucose.
# For the study under conditions without steroids, 24 hours before the seeding the culture medium of the cells is eliminated. […]
# The LNCaP line is seeded at 20,000 cells/well in 90 μl of RPMI medium with 10% foetal calf serum depleted in steroids in 96-well plates coated with poly-D-lysine (Biocoat, Costar). • Treatment of the cells: 24 h after seeding, the cells are treated with 10 μl/well of compound diluted in the culture medium. […] The cells are incubated for 144 h at 37° C., 5% CO2. • Reading: After incubation for 6 days, 10 μL of cell proliferation reagent WST-1 (Roche ref 1644807) is added to each well. […]
# androgen receptor = target: T1, androgen receptor (Homo sapiens, UniProt P10275, T878A); assay type: cell-based; details: LNCaP cells, 72 hours after treatment, western blot, FIGS. 2 to 10
# T1 construct: primary antibody directed against the androgen receptor (AR441, sc-7305, Santa Cruz); host or cells: LNCaP
# Method: The cells of the LNCaP line are seeded at a rate of 2.5 millions of cells per 10 cm Petri dish in RPMI, 10% of foetal calf serum, 2 mM of glutamine, 100 U/ml of penicillin, 0.1 mg/ml of streptomycin and 0.01M HEPES, 1 mM of sodium pyruvate, […]. 4 days later, the cells are treated with the compound to be tested. 72 hours after the treatment the cells are lyzed in lysis buffer (50 mM Tris pH 7.4, 150 mM NaCl, 1 mM EDTA, 20 mM NaF, 100 mM Na2VO3, 0.5% of NP40, 1% of Triton X-100, 1 mM EGTA, Pefabloc, protease inhibitor cocktail 11836170001 RocheDiagnostics, Phosphatase inhibitor cocktail set II Calbiochem). The cells are then scrapped and the lysate transferred into QIAshredder tubes (cat No. 79656 Qiagen) for centrifugation at 13,000 rpm for 15 min at 4° C. The supernatant is transferred into QIAshredder tubes for a second centrifugation at 13,000 rpm for 5 min in order to completely eliminate the DNA filaments. The protein concentration is then determined (Bio-Rad DC protein assay kit) and adjusted so as to load the same quantity of proteins per well (10 and 20 per well depending on the experiments). The loading buffer (sample loading buffer 3×ref 7722 Cell signaling technology) with added 1% beta-mercaptoethanol and 50 mM DTT, is added to the samples which are then heated for 10 min at 90° C. The samples are deposited under a volume of 20 μl on NuPAGE 4-12% Bis-Tris gels (cat No. NP0322BOX, Invitrogen). The migration takes place in MOPS buffer (Invitrogen) and is carried out for 1 hour at 180V. The proteins are transferred onto a nitrocellulose membrane (Hybond ECL RPN78D, GE Healthcare) under semi-dry conditions, in the presence of transfer buffer (NP0006-1, Invitrogen) over 45 min at 15V. The membrane is then blocked for 1 hour in blocking buffer (Non-fat dry milk, cat 170-6404, Biorad) at 5% in Tris Buffer saline (TBS) 0.1% Tween 20. Then it is incubated at 4° C. overnight in the presence of primary antibody directed against the androgen receptor (AR441, sc-7305, Santa Cruz) diluted to 1/2000th in blocking buffer as well as in the presence of primary antibody directed against GAPDH (Cat.MAB374, Millipore) diluted to 1/20,000th in blocking buffer (monitoring of protein load). The membrane is then washed 3 times in washing buffer (TBS, 0.1% Tween 20). The membrane is then incubated in the presence of secondary anti-immunoglobulin mouse antibody coupled with HRP (Goat anti-mouse IgG-HRP, sc 2031, Santa Cruz) diluted to 1/5000th in blocking buffer. The membrane is then washed 3 times in washing buffer.
# LNCaP cells [2] = experiment: Anti-proliferative activity on LNCaP in complete medium (WST-1); assay type: cell-based; details: Homo sapiens, 144 h, 144 h incubation, WST-1 reading, read-out: IC50 on the LNCaP cells in culture (concentration inhibiting the cell proliferation by 50%)
# Method: 1. Anti-Proliferative Activity on LNCaP in Complete Medium
# The anti-proliferative activity of the compounds of the present invention is determined on LNCaP in complete medium by applying the following experimental procedure:
# The LNCaP cell type (ATCC, 1740) originates from a prostate carcinoma expressing the androgen receptor, this line is hormone-dependent.
# Maintenance of the LNCaP line is carried out in complete culture medium: RPMI, 10% of foetal calf serum, 2 mM glutamine, 100 U/ml penicillin, 0.1 mg/ml of streptomycin and 0.01M HEPES, 1 mM sodium pyruvate, 40% of D-glucose. • Seeding the plates:
# The LNCaP line is seeded at 20,000 cells/well in […] of complete medium in 96-well plates coated with poly-D-lysine (Biocoat, Costar). • Treatment of the cells: 24 h after the seeding, the cells are treated with 10 μl/well of compound diluted in the culture medium. The concentrations used are the following: 1 nM/10/30/100/300/1000/3000/10,000/100,000 nM. The cells are incubated for 144 h at 37° C., 5% CO2. • Reading: After incubation for 6 days, 10 μL of the “WST-1 cell proliferation” reagent (Roche ref 1644807) is added to each well. After incubation for 2 hours at 37° C., 5% CO2, the absorbance at 450 nm is measured by spectrophotometry (Envision, Perkin Elmer). • Results: The experiments are carried out in duplicate and the best compounds are tested twice. A concentration value inhibiting the cell proliferation by 50% (IC50) is calculated.
# LNCaP cells [3] = details: medium depleted in steroids; stated 'as described previously' (Veldscholte 1992); cited from earlier work
# T1 sequence (P10275 whole entry T878A): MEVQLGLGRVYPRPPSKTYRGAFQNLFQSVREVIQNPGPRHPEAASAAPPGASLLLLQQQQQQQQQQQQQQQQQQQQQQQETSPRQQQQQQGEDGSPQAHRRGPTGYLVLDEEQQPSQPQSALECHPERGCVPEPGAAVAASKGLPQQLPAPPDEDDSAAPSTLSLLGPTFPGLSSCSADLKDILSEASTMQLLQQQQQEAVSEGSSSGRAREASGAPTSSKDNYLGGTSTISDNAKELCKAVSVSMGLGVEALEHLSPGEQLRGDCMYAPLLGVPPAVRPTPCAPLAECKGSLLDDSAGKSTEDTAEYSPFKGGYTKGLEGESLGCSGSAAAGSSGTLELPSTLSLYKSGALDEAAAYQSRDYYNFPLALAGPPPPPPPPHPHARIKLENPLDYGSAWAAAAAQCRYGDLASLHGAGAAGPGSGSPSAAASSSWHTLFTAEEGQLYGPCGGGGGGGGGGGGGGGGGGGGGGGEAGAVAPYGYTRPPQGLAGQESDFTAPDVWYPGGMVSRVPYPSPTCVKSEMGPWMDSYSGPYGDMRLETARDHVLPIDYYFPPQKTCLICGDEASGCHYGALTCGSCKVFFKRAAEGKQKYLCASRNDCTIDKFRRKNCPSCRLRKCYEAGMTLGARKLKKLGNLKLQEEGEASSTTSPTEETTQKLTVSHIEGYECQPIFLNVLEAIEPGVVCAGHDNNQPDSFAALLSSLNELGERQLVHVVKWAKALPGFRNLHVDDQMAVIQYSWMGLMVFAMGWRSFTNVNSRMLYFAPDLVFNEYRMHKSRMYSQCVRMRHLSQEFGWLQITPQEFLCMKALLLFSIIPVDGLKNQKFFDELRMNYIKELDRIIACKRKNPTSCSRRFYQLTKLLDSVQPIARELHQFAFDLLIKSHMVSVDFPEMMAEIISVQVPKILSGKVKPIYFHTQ
SMILES,effect on protein expression of the androgen receptor (androgen receptor),pIC50 (LNCaP cells [2]),further results
"CC1(C)C(=O)N(c2ccc([N+](=O)[O-])c(C(F)(F)F)c2)C(=O)N1CCCCCN1C(=O)N(c2ccc([N+](=O)[O-])c(C(F)(F)F)c2)C(=O)C1(C)C [Example 2, 1,1′-pentane-1,5-diylbis{5,5-dimethyl-3-[4-nitro-3-(trifluoromethyl)phenyl]imidazolidine-2,4-dione}]",reduce protein expression of the androgen receptor,,inhibitory activity on cell proliferation of LNCaP cultured in medium depleted in steroids (LNCaP cells [1]): visible inhibitory activity at low concentrations
"CC1(C)C(=O)N(c2ccc([N+](=O)[O-])c(C(F)(F)F)c2)C(=O)N1CCCCCCCN1C(=O)N(c2ccc([N+](=O)[O-])c(C(F)(F)F)c2)C(=O)C1(C)C [Example 4, 1,1′-heptane-1,7-diylbis{5,5-dimethyl-3-[4-nitro-3-(trifluoromethyl)phenyl]imidazolidine-2,4-dione}]",,> 5.82,
"CC1(C)C(=O)N(c2ccc([N+](=O)[O-])c(C(F)(F)F)c2)C(=O)N1CCOCCN1C(=O)N(c2ccc([N+](=O)[O-])c(C(F)(F)F)c2)C(=O)C1(C)C [Example 7, 1,1′-(oxydiethane-2,1-diyl)bis{5,5-dimethyl-3-[4-nitro-3-(trifluoromethyl)-phenyl]imidazolidine-2,4-dione}]",reduce protein expression of the androgen receptor,,
"Cc1cc(N2C(=O)N(CCCCCN3C(=O)N(c4ccc([N+](=O)[O-])c(C)c4)C(=O)C3(C)C)C(C)(C)C2=O)ccc1[N+](=O)[O-] [Example 10, 1,1′-pentane-1,5-diylbis[5,5-dimethyl-3-(3-methyl-4-nitrophenyl)imidazolidine-2,4-dione]]",reduce protein expression of the androgen receptor,> 5.82,
"COc1cc(N2C(=O)N(CCCCCN3C(=O)N(c4ccc([N+](=O)[O-])c(OC)c4)C(=O)C3(C)C)C(C)(C)C2=O)ccc1[N+](=O)[O-] [Example 13, 1,1′-pentane-1,5-diylbis[3-(3-methoxy-4-nitrophenyl)-5,5-dimethyl-imidazolidine-2,4-dione]]",,> 5.82,
"COC(=O)Nc1ccc(N2C(=O)N(CCCCCN3C(=O)N(c4ccc(NC(=O)OC)c(C)c4)C(=O)C3(C)C)C(C)(C)C2=O)cc1C [Example 14, dimethyl{pentane-1,5-diylbis[(4,4-dimethyl-2,5-dioxoimidazolidine-3,1-diyl)(2-methyl-4,1-phenylene)]}biscarbamate]",,> 5.82,
"Cc1cc(N2C(=O)N(CCCCCN3C(=O)N(c4ccc(C#N)c(C)c4)C(=O)C3(C)C)C(C)(C)C2=O)ccc1C#N [Example 15, 4,4′-[pentane-1,5-diylbis(4,4-dimethyl-2,5-dioxoimidazolidine-3,1-diyl)]bis(2-methylbenzonitrile)]",reduce protein expression of the androgen receptor,,
"CC1(C)C(=O)N(c2ccc(C#N)c(Cl)c2)C(=O)N1CCCCCN1C(=O)N(c2ccc(C#N)c(Cl)c2)C(=O)C1(C)C [Example 16, 4,4′-[pentane-1,5-diylbis(4,4-dimethyl-2,5-dioxoimidazolidine-3,1-diyl)]bis(2-chlorobenzonitrile)]",reduce protein expression of the androgen receptor,> 5.82,
"CC1(C)C(=O)N(c2ccc([N+](=O)[O-])c(C(F)(F)F)c2)C(=O)N1C/C=C\CN1C(=O)N(c2ccc([N+](=O)[O-])c(C(F)(F)F)c2)C(=O)C1(C)C [Example 19, 1,1′-(2Z)-but-2-ene-1,4-diylbis{5,5-dimethyl-3-[4-nitro-3-(trifluoromethyl)phenyl]imidazolidine-2,4-dione}]",reduce protein expression of the androgen receptor,,inhibitory activity on cell proliferation of LNCaP cultured in medium depleted in steroids (LNCaP cells [1]): visible inhibitory activity at low concentrations
"CC1(C)C(=O)N(c2ccc(C#N)c(C(F)(F)F)c2)C(=O)N1C/C=C\CN1C(=O)N(c2ccc(C#N)c(C(F)(F)F)c2)C(=O)C1(C)C [Example 21, 4,4′-[(2Z)-but-2-ene-1,4-diylbis(4,4-dimethyl-2,5-dioxoimidazolidine-3,1-diyl)]bis[2-(trifluoromethyl)benzonitrile]]",reduce protein expression of the androgen receptor,,
"CC1(C)C(=O)N(c2ccc(C#N)c(C(F)(F)F)c2)C(=O)N1C[C@@H]1O[C@@H]1CN1C(=O)N(c2ccc(C#N)c(C(F)(F)F)c2)C(=O)C1(C)C [Example 22, 4,4′-{(2R,3S)-oxirane-2,3-diylbis[methanediyl(4,4-dimethyl-2,5-dioxoimidazolidine-3,1-diyl)]}bis[2-(trifluoromethyl)benzonitrile]]",reduce protein expression of the androgen receptor,,
CC1(C)NC(=O)N(c2ccc([N+](=O)[O-])c(C(F)(F)F)c2)C1=O [nilutamide],,,"agonist / inhibitory activity of nilutamide on LNCaP proliferation (LNCaP cells [3]): agonist activity at low concentrations, then an inhibitory activity at high concentrations"
